Key:
[1] = test system: Trypanosoma brucei rhodesiense; test: microbe, parasite or virus in culture; settings: STIB900, 72 h
Description: Antiprotozoal activity against Trypanosoma brucei rhodesiense STIB900 trypomastigotes incubated for 72 hrs by resazurin dye based fluorimetric analysis

[2] = in vitro; settings: human, liver microsomes
Description: Metabolic stability in human liver microsomes assessed as intrinsic clearance at 0.5 uM incubated for 30 mins by LC-MS/MS analysis

[3] = in vitro; settings: human, MRC5 SV2 cells
Description: Selectivity index, ratio of IC50 for human MRC5 SV2 cells to IC50 for Trypanosoma cruzi Tulahuen CL2 amastigotes infected in human MRC5 SV2 cells

[4] = test system: Trypanosoma cruzi; test: microbe, parasite or virus in culture; settings: Tulahuen CL2, MRC-5 SV2, 168 h
Description: Antitrypanosomal activity against Trypanosoma cruzi Tulahuen CL2 amastigotes infected in human MRC5 SV2 cells incubated for 7 days by chlorophenol red beta-D-galactopyranoside substrate based spectrophotometric assay

[5] = in vitro; settings: human, MRC5 SV2 cells; remark: listed apart in the source
Description: (§1) Cytotoxicity against human MRC5 SV2 cells assessed as reduction in cell viability incubated for 3 days by fluorimetry

[6] = in vitro; settings: PAMPA
Description: Effective permeability of compound by PAMPA assay

[7] = in vitro; settings: mouse, peritoneal macrophages
Description: (§2) Cytotoxicity against mouse peritoneal Macrophage cells assessed as reduction in cell viability incubated for 3 days by fluorimetry

[8] = in vitro; settings: mouse, liver microsomes
Description: Metabolic stability in mouse liver microsomes assessed as intrinsic clearance at 0.5 uM incubated for 30 mins by LC-MS/MS analysis

[9] = test system: Macrophage; test: cells; settings: Mus musculus, 72 h
Description: as §2

[10] = in vitro; settings: mouse, liver microsomes; remark: listed apart in the source
Description: Metabolic stability in mouse liver microsomes assessed as fraction unbound at 0.5 uM incubated for 30 mins by LC-MS/MS analysis

[11] = test system: Trypanosoma brucei; test: microbe, parasite or virus in culture; settings: Squib 427, 72 h
Description: Antitrypanosomal activity against Trypanosoma brucei Squib 427 assessed as reduction in parasite growth incubated for 72 hrs by resazurin dye based fluorimetric analysis

[12] = test system: Leishmania infantum; test: microbe, parasite or virus in culture; settings: for IC50: MHOM/MA(BE)/67/ITMAP263, 120 h; for IC90: MHOM/MA(BE)/67/ITMAP263, in Mus musculus, 120 h
Description: Antileishmanial activity against amastigote stage of Leishmania infantum MHOM/MA(BE)/67/ITMAP263 infected in mouse peritoneal macrophage assessed as parasite growth inhibition incubated for 5 days by Giemsa staining based assay

[13] = physchem; settings: buffer, pH 7.4
Description: Lipophilicity, logD of compound at pH 7.4 by HPLC analysis

[14] = in vitro; settings: human, MRC5 SV2 cells; remark: listed apart in the source
Description: Selectivity index, ratio of IC50 for human MRC5 SV2 cells to IC50 for Trypanosoma brucei rhodesiense STIB900 trypomastigotes

[15] = cells; settings: Homo sapiens, MRC-5 SV2, 72 h
Description: as §1

[16] = in vitro; settings: mouse, peritoneal macrophages; remark: listed apart in the source
Description: Selectivity index, ratio of IC50 for mouse peritoneal macrophage to IC50 for Leishmania infantum MHOM/MA(BE)/67/ITMAP263 infected in mouse peritoneal macrophage

IC50 [1] [µM]	IC90 [1] [µM]	CLint scaled at 0.5 h, 0.5 µM [2] [mL/min/kg]	microsomal CLint at 0.5 h, 0.5 µM [2] [µL/min/mg]	IC90 at 72 h [5] [µM]	Papp [6] [×10⁻⁶ cm/s]	IC90 at 72 h [7] [µM]	CLint scaled at 0.5 h, 0.5 µM [8] [mL/min/kg]	microsomal CLint at 0.5 h, 0.5 µM [8] [µL/min/mg]	IC50 [11] [µM]	IC90 [11] [µM]	IC50 [12] [µM]	IC90 [12] [µM]	logD [13]	Compound	selectivity ratio [3]	IC50 [4] [µM]	IC90 [4] [µM]	IC50 [9] [µM]	selectivity ratio [14]	IC50 [15] [µM]	also measured
7.33	24.4	838		29.5		29.9	2420		19.6	29.5	18.6	29.8		COc1cc(OC)c2cc(C(=O)N3CCCC(c4cc5ncccc5[nH]4)C3)[nH]c2c1 (stereo unspecified)	18.8	1.03	3.13	22.6	2.65	19.5	selectivity ratio [16]: 1.07
28.7	57.5	118	77.6	64	12.2	64	1110	247	64	64	64	64	3.88	O=C(c1ccc(F)cc1)N1CCCC(c2cc3nc(C(F)(F)F)ccc3[nH]2)C1 (stereo unspecified)		64	64	64	2.19	64	fraction unbound at 0.5 h, 0.5 µM [10]: 0.713
41.9	64	39.5	33.8	64	3.17	64	1610	467	64	64	37.1	64	2.86	O=C(c1cc(C2CC2)no1)N1CCCC(c2cc3ncccc3[nH]2)C1 (stereo unspecified)	15.8	4.05	13.8	64	1.56	64	fraction unbound at 0.5 h, 0.5 µM [10]: 0.926; selectivity ratio [16]: 1.73
64	64	1350	196	64	0.307	59.7			64	64	35.1	59.6	4.59	O=C(c1cc(C(F)(F)F)no1)N1CCCC(c2cc3ncc(-c4ccccc4)cc3[nH]2)C1 (stereo unspecified)		64	64	45.3		64	fraction unbound at 0.5 h, 0.5 µM [10]: 0.157; selectivity ratio [16]: 1.79
2.46	15.1	125	78.4	64	15	64	1390	294	64	64	64	64	3.52	O=C(c1ccc(F)cc1)N1CCCC(c2cc3nc(Cl)ccc3[nH]2)C1 (stereo unspecified)		64	64	64	26	64	fraction unbound at 0.5 h, 0.5 µM [10]: 0.676
44.6	64	≥ 105	97.5	64	0.545	59.7	≥ 597	187	64	64	45.6	60.5	3.86	O=C(Nc1ccc(-c2cc3ncccc3[nH]2)cc1)c1ccccc1	2.54	25.2	64	45.3	1.45	64	
51.8 to 64	64	31 to 38.5	23 to 26.6	64		64	616 to 2560	155 to 600	64	64	49.3 to 64	64	2.26	CC(C)c1cc(C(=O)N2CCCC(O)(c3cc4ncccc4[nH]3)C2)on1 (stereo unspecified)	1.9	8.35 to 58.5	15.6 to 64	64		56.5 to 64	selectivity ratio [16]: 1.14
4.6	23.7	≥ 392	363	64	0.606	64	≥ 1670	522	64	64	52.5	64	3.88	O=C(Nc1cccc(-c2cc3ncccc3[nH]2)c1)c1ccccc1	30.7	2.08	3.8	64	13.9	64	

The remaining lines, values behind:

Compound	IC50 [1] [µM]	IC90 [1] [µM]	CLint scaled at 0.5 h, 0.5 µM [2] [mL/min/kg]	microsomal CLint at 0.5 h, 0.5 µM [2] [µL/min/mg]	IC90 at 72 h [5] [µM]	Papp [6] [×10⁻⁶ cm/s]	IC90 at 72 h [7] [µM]	CLint scaled at 0.5 h, 0.5 µM [8] [mL/min/kg]	microsomal CLint at 0.5 h, 0.5 µM [8] [µL/min/mg]	IC50 [11] [µM]	IC90 [11] [µM]	IC50 [12] [µM]	IC90 [12] [µM]	logD [13]	selectivity ratio [3]	IC50 [4] [µM]	IC90 [4] [µM]	IC50 [9] [µM]	selectivity ratio [14]	IC50 [15] [µM]	also measured
O=C(c1cc(C(F)(F)F)no1)N1CCCC(c2cc3ncccc3[nH]2)C1 (stereo unspecified)	40.4	60.9	323	184	64	3.45	64	2330	449	64	64	64	64	3.42	15.7	4.08	45.3	64	1.61	64	fraction unbound at 0.5 h, 0.5 µM [10]: 0.615
O=C(c1ccc(F)cc1)N1CCCC(c2cc3nc(N4CCCC4)ccc3[nH]2)C1 (stereo unspecified)	8.03	14.1	92.5	50.1	64	0.152 to 0.228	59.7	1960 to 2410	441 to 444	43.4	60.8	41.8	59.6	3.45	5.86	8.33	31	45.3	6.07	48.7	fraction unbound at 0.5 h, 0.5 µM [10]: 0.586 to 0.722
CCC(=O)N1CCCC(c2nc3ncc(Cl)cc3[nH]2)C1 (stereo unspecified)	41.9	64	< 28.3	< 23	64	9.01	64	472	128	64	64	64	64	2.17		64	64	64	1.53	64	fraction unbound at 0.5 h, 0.5 µM [10]: 0.866
O=C(c1cc(C(F)(F)F)no1)N1CCCC(c2cc3ncc(Br)cc3[nH]2)C1 (stereo unspecified)	22.9	62.7	193	87.8	64	7.99	64	2800	431	64	64	57	64	4.27		64	64	64	2.8	64	fraction unbound at 0.5 h, 0.5 µM [10]: 0.491
COc1ccc(OC)c2[nH]c(C(=O)N3CCCC(c4cc5ncccc5[nH]4)C3)cc12 (stereo unspecified)	9.55	25.6	235		29.9		32	9620		20.5	29.9	9.59	32		18.9	1.2	6.67	32	2.36	22.6	selectivity ratio [16]: 2.35
O=C(c1ccccc1)N1C=C(c2cc3ncccc3[nH]2)CCC1	64	64	≥ 257	238	64	2.99	64	≥ 3320	1040	64	64	34.9	64	2.96	73.8	0.866	16	64		64	selectivity ratio [16]: 1.84
CC(C)(C)c1cc(C(=O)N2CCCC(c3cc4ncccc4[nH]3)C2)on1 (stereo unspecified)	34.7	64	321	177	64	2.97	64	2150	403	64	64	64	64	3.4	29.4	2.18	64	64	1.83	64	fraction unbound at 0.5 h, 0.5 µM [10]: 0.598
